In ChEMBL document CHEMBL1130305, “The design and synthesis of orally active short duration spiroindane growth hormone secretagogues” (Bioorg Med Chem Lett, 1997):
Blank lines part the entries; values can stand above or below the compound they belong to.

How the values were obtained:
Canis familiaris [1] = species on record: Canis familiaris; assay: Compound was evaluated for the lowest dose where fourfold elevations over basal GH levels were observed in Beagle dog model after peroral dose of 0.25 mpk; 2/5; assay type: functional, Canis lupus familiaris
Canis familiaris [2] = species on record: Canis familiaris; assay: Compound was evaluated for the lowest dose where fourfold elevations over basal GH levels were observed in Beagle dog model after peroral dose of 0.5 mpk; 4/4; assay type: functional, Canis lupus familiaris
[3] = Compound was evaluated for its bioavailability in the dogs; assay type: ADME, organism-based, Canis lupus familiaris; settings: dog, in vivo; read-out: Bioavailabiility
[4] = Compound was evaluated for its bioavailability in the rats; assay type: ADME, organism-based; settings: rat, in vivo; read-out: Bioavailabiility
[5] = Compound was evaluated for its absorption in the rats; assay type: ADME, organism-based; settings: rat, in vivo; read-out: Absorption
Canis familiaris [6] = assay: Compound was evaluated for percentage of growth hormone of day1 response, after chronic oral dosing at 0.5 mpk on day 4; assay type: functional, Canis lupus familiaris
Canis familiaris [7] = assay: Compound was evaluated for percentage of growth hormone of day1 response, after chronic oral dosing at 1.0 mpk on day 4; assay type: functional, Canis lupus familiaris
Canis familiaris [8] = assay: Compound was evaluated for the lowest dose where fourfold elevations over basal GH levels were observed in Beagle dog model after intravenous dose of 0.025 mpk and 0.125 mpk oral dose; 1/2; assay type: functional, Canis lupus familiaris
Canis familiaris [9] = species on record: Canis familiaris; assay: Compound was evaluated for the lowest dose where fourfold elevations over basal GH levels were observed in Beagle dog model after peroral dose of 0.25 mpk; 5/8; assay type: functional, Canis lupus familiaris
Canis familiaris [10] = assay: Compound was evaluated for percentage of increase in IGF-1 levels, after chronic oral dosing at 0.5 mpk on day 4; assay type: functional, Canis lupus familiaris
Canis familiaris [11] = assay: Compound was evaluated for percentage of increase in IGF-1 levels, after chronic oral dosing at 1.0 mpk on day 4; assay type: functional, Canis lupus familiaris
Canis familiaris [12] = species on record: Canis familiaris; assay: Compound was evaluated for the lowest dose where fourfold elevations over basal GH levels were observed in Beagle dog model after peroral dose of 0.5 mpk; 2/2; assay type: functional, Canis lupus familiaris
[13] = half life was evaluated; assay type: ADME
Canis familiaris [14] = species on record: Canis familiaris; assay: Compound was evaluated for the lowest dose where fourfold elevations over basal GH levels were observed in Beagle dog model after peroral dose of 0.25 mpk; 1/1; assay type: functional, Canis lupus familiaris
Canis familiaris [15] = species on record: Canis familiaris; assay: Compound was evaluated for the lowest dose where fourfold elevations over basal GH levels were observed in Beagle dog model after peroral dose of 0.5 mpk; 1/2; assay type: functional, Canis lupus familiaris
Canis familiaris [16] = assay: Compound was evaluated for the lowest dose where fourfold elevations over basal GH levels were observed in Beagle dog model after intravenous dose of 0.025 mpk and 0.125 mpk oral dose; 6/8; assay type: functional, Canis lupus familiaris
Canis familiaris [17] = species on record: Canis familiaris; assay: Compound was evaluated for the lowest dose where fourfold elevations over basal GH levels were observed in Beagle dog model after peroral dose of 0.25 mpk; 8/8; assay type: functional, Canis lupus familiaris

Compound: CCOC(=O)C[C@@H]1CC2(CCN(C(=O)[C@@H](CCCc3ccccc3)NC(=O)C(C)(C)N)CC2)c2ccccc21.Cl
Responders (Canis familiaris [1]): 2
Responders (Canis familiaris [2]): 4

Compound: CC(C)(N)C(=O)N[C@H](CCCc1ccccc1)C(=O)N1CCC2(CC1)C[C@@H](CC(=O)O)c1ccccc12.Cl
Responders (Canis familiaris [12]): 2

Compound: CC(C)(N)C(=O)N[C@H](COCc1ccccc1)C(=O)N1CCC2(CC1)CN(S(C)(=O)=O)c1ccccc12.Cl
half-life [13]: 4.8 h
Responders (Canis familiaris [16]): 6
Responders (Canis familiaris [17]): 8

More lines, main results first:

bioavailability [3]: 11.8%
bioavailability [4]: 4.5%
Fa [5]: > 50%
Compound: CCOC(=O)[C@H]1CC2(CCN(C(=O)[C@@H](CCCc3ccccc3)NC(=O)C(C)(C)N)CC2)c2ccccc21.Cl
GH (Canis familiaris [6]): 65%
GH (Canis familiaris [7]): 80%
Responders (Canis familiaris [8]): 1
Responders (Canis familiaris [9]): 5
Increase (Canis familiaris [10]): 65%
Increase (Canis familiaris [11]): 45%

half-life [13]: 1.7 h
Compound: CC(C)(N)C(=O)N[C@H](CCCc1ccccc1)C(=O)N1CCC2(CC1)C[C@H](C(=O)O)c1ccccc12.Cl
Responders (Canis familiaris [14]): 1
Responders (Canis familiaris [15]): 1
